Results as given in patent publication US8470812B2, “Substituted benzo-pyrimido-tetrazolo-diazepine compounds” (ArQule, Inc., priority 2009, dated 2013).

Legend:
DLD-1 cancer cells = assay: MTS assay, cell growth inhibition; format: cell-based; details: DLD-1 cells, 72 h incubation; test concentration not given
Method: (§1) Cells were maintained at 37° C., 5% CO2 in DMEM media supplemented with 1% fetal bovine serum, penicillin/streptomycin and fungizone (Invitrogen). Cells were seeded into 96-well tissue culture plates at 3000 per well and cultured at 37° C. for 18 hours. Test compounds were dissolved and diluted to 300× in DMSO then diluted 1:40 in DMEM. Cells were incubated with test compounds for 72 hours followed by incubation with tetrazolium compound (3-(4,5-dimethylthiazol-2-yl)-5-(3-carboxymethoxyphenyl)-2-(4-sulfophenyl)-2H-tetrazolium, inner salt; MTS) and the electron coupling reagent, phenazine methosulfate (PMS) for 4 hours. […] The ability of compounds to inhibit cell growth in this assay is correlated with the reduction of dehydrogenase enzyme activity found in metabolically active cells. The measurement of the absorbance of the formazan was assessed using a Victor (Perkin Elmer) microplate reader at 492 nm. The calculated IC50 value is the concentration of the test compound that causes a 50% decrease in the absorbance. Selected compounds have been tested in DLD-1 and MDA-MB-231 cancer cells.

MDA-MB-231 cancer cells = assay: MTS assay, cell growth inhibition; format: cell-based; details: MDA-MB-231 cells, 72 h incubation; test concentration not given
Method: as §1

| Compound | DLD-1, MTS, 72 h (% Inhibition) (DLD-1 cancer cells) | MDA-MB-231, MTS, 72 h (% Inhibition) (MDA-MB-231 cancer cells) |
| --- | --- | --- |
| c1ccc2c(c1)Nc1nc(NCC3CC3)ncc1-c1nnnn1-2 [Compound 9, N-(cyclopropylmethyl)-9H-pyrimido[5,4-c]tetrazolo[1,5-a][1,5]benzodiazepin-11-amine] | 98% | 92% |
| Fc1ccc(CN2c3ccccc3-n3nnnc3-c3cnc(N4CCNCC4)nc32)cc1F [Compound 11, 9-(3,4-difluorobenzyl)-11-piperazin-1-yl-9H-pyrimido[5,4-c]tetrazolo[1,5-a][1,5]benzodiazepine] | 97% | 97% |
| Fc1ccc(CN2c3ccccc3-n3nnnc3-c3cnc(N4CCOCC4)nc32)cc1F [Compound 13, 9-(3,4-difluorobenzyl)-11-morpholin-4-yl-9H-pyrimido[5,4-c]tetrazolo[1,5-a][1,5]benzodiazepine] | 97% | 98% |
| Fc1ccc(CN2c3ccccc3-n3nnnc3-c3cnc(NCc4ccncc4)nc32)cc1F [Compound 20, 9-(3,4-difluorobenzyl)-N-(pyridin-4-ylmethyl)-9H-pyrimido[5,4-c]tetrazolo[1,5-a][1,5]benzodiazepin-11-amine] | 102% | 102% |
| CC(C)(C)OC(=O)NC1CCCN(c2ncc3c(n2)N(Cc2ccc(F)c(F)c2)c2ccccc2-n2nnnc2-3)C1 (stereo not shown) [Compound 21, tert-butyl {1-[9-(3,4-difluorobenzyl)-9H-pyrimido[5,4-c]tetrazolo[1,5-a][1,5]benzodiazepin-11-yl]piperidin-3-yl}carbamate] | 97% | 97% |
| CC(C)(C)OC(=O)N1CCN(c2ncc3c(n2)N(Cc2ccc(F)c(F)c2)c2ccccc2-n2nnnc2-3)CC1 [Compound 22, tert-butyl 4-[9-(3,4-difluorobenzyl)-9H-pyrimido[5,4-c]tetrazolo[1,5-a][1,5]benzodiazepin-11-yl]piperazine-1-carboxylate] | 95% | 93% |
| COc1cc(CNc2ncc3c(n2)Nc2ccccc2-n2nnnc2-3)cc(OC)c1 [Compound 24, N-(3,5-dimethoxybenzyl)-9H-pyrimido[5,4-c]tetrazolo[1,5-a][1,5]benzodiazepin-11-amine] | 95% | 33% |
| c1ccc(CNc2ncc3c(n2)Nc2ccccc2-n2nnnc2-3)nc1 [Compound 25, N-(pyridin-2-ylmethyl)-9H-pyrimido[5,4-c]tetrazolo[1,5-a][1,5]benzodiazepin-11-amine] | 97% | 79% |
| CC(Nc1ncc2c(n1)Nc1ccccc1-n1nnnc1-2)c1ccc(F)cc1 (stereo not shown) [Compound 33, N-[1-(4-fluorophenyl)ethyl]-9H-pyrimido[5,4-c]tetrazolo[1,5-a][1,5]benzodiazepin-11-amine] | 82% | 42% |
| c1ccc2c(c1)Nc1nc(N3CCN(c4ccncc4)CC3)ncc1-c1nnnn1-2 [Compound 34, 11-(4-pyridin-4-ylpiperazin-1-yl)-9H-pyrimido[5,4-c]tetrazolo[1,5-a][1,5]benzodiazepine] | 97% |  |
| c1ccc(CCNc2ncc3c(n2)Nc2ccccc2-n2nnnc2-3)cc1 [Compound 35, N-(2-phenylethyl)-9H-pyrimido[5,4-c]tetrazolo[1,5-a][1,5]benzodiazepin-11-amine] |  | 42% |
| Fc1ccc(CNc2ncc3c(n2)Nc2ccccc2-n2nnnc2-3)cc1F [Compound 36, N-(3,4-difluorobenzyl)-9H-pyrimido[5,4-c]tetrazolo[1,5-a][1,5]benzodiazepin-11-amine] | 31% |  |
| c1ccc2c(c1)Nc1nc(NCCN3CCCC3)ncc1-c1nnnn1-2 [Compound 37, N-(2-pyrrolidin-1-ylethyl)-9H-pyrimido[5,4-c]tetrazolo[1,5-a][1,5]benzodiazepin-11-amine] | 95% |  |
| c1ccc2c(c1)Nc1nc(NCCc3ccncc3)ncc1-c1nnnn1-2 [Compound 40, N-(2-pyridin-4-ylethyl)-9H-pyrimido[5,4-c]tetrazolo[1,5-a][1,5]benzodiazepin-11-amine] | 98% | 65% |
| CCCNc1ncc2c(n1)Nc1ccccc1-n1nnnc1-2 [Compound 41, N-propyl-9H-pyrimido[5,4-c]tetrazolo[1,5-a][1,5]benzodiazepin-11-amine] | 97% | 98% |
| CCN1CCN(c2ncc3c(n2)Nc2ccccc2-n2nnnc2-3)CC1 [Compound 43, 11-(4-ethylpiperazin-1-yl)-9H-pyrimido[5,4-c]tetrazolo[1,5-a][1,5]benzodiazepine] | 32% | 90% |
| CC(CNc1ncc2c(n1)Nc1ccccc1-n1nnnc1-2)c1ccccc1 (stereo not shown) [Compound 44, N-(2-phenylpropyl)-9H-pyrimido[5,4-c]tetrazolo[1,5-a][1,5]benzodiazepin-11-amine] | 51% |  |

| Compound | DLD-1, MTS, 72 h (% Inhibition) (DLD-1 cancer cells) | MDA-MB-231, MTS, 72 h (% Inhibition) (MDA-MB-231 cancer cells) |
| --- | --- | --- |
| Cc1ccc(CNc2ncc3c(n2)Nc2ccccc2-n2nnnc2-3)cc1F [Compound 46, N-(3-fluoro-4-methylbenzyl)-9H-pyrimido[5,4-c]tetrazolo[1,5-a][1,5]benzodiazepin-11-amine] | 69% |  |
| CC(C)CN(C)c1ncc2c(n1)Nc1ccccc1-n1nnnc1-2 [Compound 47, N-methyl-N-(2-methylpropyl)-9H-pyrimido[5,4-c]tetrazolo[1,5-a][1,5]benzodiazepin-11-amine] | 46% |  |
| COc1ccccc1CNc1ncc2c(n1)Nc1ccccc1-n1nnnc1-2 [Compound 50, N-(2-methoxybenzyl)-9H-pyrimido[5,4-c]tetrazolo[1,5-a][1,5]benzodiazepin-11-amine] | 54% |  |
| Fc1ccc(CNc2ncc3c(n2)Nc2ccccc2-n2nnnc2-3)cc1Cl [Compound 55, N-(3-chloro-4-fluorobenzyl)-9H-pyrimido[5,4-c]tetrazolo[1,5-a][1,5]benzodiazepin-11-amine] | 45% |  |
| CN1CCC(Nc2ncc3c(n2)Nc2ccccc2-n2nnnc2-3)CC1 [Compound 66, N-(1-methylpiperidin-4-yl)-9H-pyrimido[5,4-c]tetrazolo[1,5-a][1,5]benzodiazepin-11-amine] | 97% |  |
| COc1ccccc1CCNc1ncc2c(n1)Nc1ccccc1-n1nnnc1-2 [Compound 69, N-[2-(2-methoxyphenyl)ethyl]-9H-pyrimido[5,4-c]tetrazolo[1,5-a][1,5]benzodiazepin-11-amine] | 58% |  |
| Cc1ccc(CNc2ncc3c(n2)Nc2ccccc2-n2nnnc2-3)cc1 [Compound 73, N-(4-methylbenzyl)-9H-pyrimido[5,4-c]tetrazolo[1,5-a][1,5]benzodiazepin-11-amine] |  | 39% |
| Fc1ccc(CCNc2ncc3c(n2)Nc2ccccc2-n2nnnc2-3)cc1 [Compound 74, N-[2-(4-fluorophenyl)ethyl]-9H-pyrimido[5,4-c]tetrazolo[1,5-a][1,5]benzodiazepin-11-amine] | 78% |  |
| Fc1cc(F)cc(CNc2ncc3c(n2)Nc2ccccc2-n2nnnc2-3)c1 [Compound 76, N-(3,5-difluorobenzyl)-9H-pyrimido[5,4-c]tetrazolo[1,5-a][1,5]benzodiazepin-11-amine] | 73% |  |
| c1csc(CNc2ncc3c(n2)Nc2ccccc2-n2nnnc2-3)c1 [Compound 81, N-(thiophen-2-ylmethyl)-9H-pyrimido[5,4-c]tetrazolo[1,5-a][1,5]benzodiazepin-11-amine] | 41% |  |
| Cc1cccc(CNc2ncc3c(n2)Nc2ccccc2-n2nnnc2-3)c1 [Compound 83, N-(3-methylbenzyl)-9H-pyrimido[5,4-c]tetrazolo[1,5-a][1,5]benzodiazepin-11-amine] | 89% |  |
| COc1cccc(CCNc2ncc3c(n2)Nc2ccccc2-n2nnnc2-3)c1 [Compound 84, N-[2-(3-methoxyphenyl)ethyl]-9H-pyrimido[5,4-c]tetrazolo[1,5-a][1,5]benzodiazepin-11-amine] | 42% |  |
| Clc1ccccc1CCNc1ncc2c(n1)Nc1ccccc1-n1nnnc1-2 [Compound 89, N-[2-(2-chlorophenyl)ethyl]-9H-pyrimido[5,4-c]tetrazolo[1,5-a][1,5]benzodiazepin-11-amine] | 31% |  |
| Cc1ccc(CCNc2ncc3c(n2)Nc2ccccc2-n2nnnc2-3)cc1 [Compound 90, N-[2-(4-methylphenyl)ethyl]-9H-pyrimido[5,4-c]tetrazolo[1,5-a][1,5]benzodiazepin-11-amine] | 61% |  |
| CC1CCCCC1Nc1ncc2c(n1)Nc1ccccc1-n1nnnc1-2 (stereo not shown) [Compound 97, N-(2-methylcyclohexyl)-9H-pyrimido[5,4-c]tetrazolo[1,5-a][1,5]benzodiazepin-11-amine] | 39% |  |
| Fc1ccc(CNc2ncc3c(n2)Nc2ccccc2-n2nnnc2-3)c(Cl)c1 [Compound 102, N-(2-chloro-4-fluorobenzyl)-9H-pyrimido[5,4-c]tetrazolo[1,5-a][1,5]benzodiazepin-11-amine] | 84% |  |
| c1ccc(CC2CCN(c3ncc4c(n3)Nc3ccccc3-n3nnnc3-4)CC2)cc1 [Compound 105, 11-(4-benzylpiperidin-1-yl)-9H-pyrimido[5,4-c]tetrazolo[1,5-a][1,5]benzodiazepine] |  | 56% |
